What is called IC50 is the concentration that inhibits the measured activity by half. By fold induction is commonly meant the signal under treatment as a multiple of the control signal. Low values mean a weak induction, high ones a strong induction.

Eight compounds from patent US10934255B2, “Nrf and HIF activators/HDAC inhibitors and therapeutic methods using the same” (THE BOARD OF TRUSTEES OF THE UNIVERSITY OF ILLINOIS, priority 2017, dated 2021) can be followed below.

Read-outs that look alike come from different tables or passages of the source.

For test [1], the target named is T1, Human HDAC6 (Homo sapiens, UniProt Q9UBN7).
T1 construct: Full length with N-terminal GST tag, MW=159 kDa; GST (N); host or cells: Sf9 insect cells (baculovirus)
T1 sequence (Q9UBN7 1-1215): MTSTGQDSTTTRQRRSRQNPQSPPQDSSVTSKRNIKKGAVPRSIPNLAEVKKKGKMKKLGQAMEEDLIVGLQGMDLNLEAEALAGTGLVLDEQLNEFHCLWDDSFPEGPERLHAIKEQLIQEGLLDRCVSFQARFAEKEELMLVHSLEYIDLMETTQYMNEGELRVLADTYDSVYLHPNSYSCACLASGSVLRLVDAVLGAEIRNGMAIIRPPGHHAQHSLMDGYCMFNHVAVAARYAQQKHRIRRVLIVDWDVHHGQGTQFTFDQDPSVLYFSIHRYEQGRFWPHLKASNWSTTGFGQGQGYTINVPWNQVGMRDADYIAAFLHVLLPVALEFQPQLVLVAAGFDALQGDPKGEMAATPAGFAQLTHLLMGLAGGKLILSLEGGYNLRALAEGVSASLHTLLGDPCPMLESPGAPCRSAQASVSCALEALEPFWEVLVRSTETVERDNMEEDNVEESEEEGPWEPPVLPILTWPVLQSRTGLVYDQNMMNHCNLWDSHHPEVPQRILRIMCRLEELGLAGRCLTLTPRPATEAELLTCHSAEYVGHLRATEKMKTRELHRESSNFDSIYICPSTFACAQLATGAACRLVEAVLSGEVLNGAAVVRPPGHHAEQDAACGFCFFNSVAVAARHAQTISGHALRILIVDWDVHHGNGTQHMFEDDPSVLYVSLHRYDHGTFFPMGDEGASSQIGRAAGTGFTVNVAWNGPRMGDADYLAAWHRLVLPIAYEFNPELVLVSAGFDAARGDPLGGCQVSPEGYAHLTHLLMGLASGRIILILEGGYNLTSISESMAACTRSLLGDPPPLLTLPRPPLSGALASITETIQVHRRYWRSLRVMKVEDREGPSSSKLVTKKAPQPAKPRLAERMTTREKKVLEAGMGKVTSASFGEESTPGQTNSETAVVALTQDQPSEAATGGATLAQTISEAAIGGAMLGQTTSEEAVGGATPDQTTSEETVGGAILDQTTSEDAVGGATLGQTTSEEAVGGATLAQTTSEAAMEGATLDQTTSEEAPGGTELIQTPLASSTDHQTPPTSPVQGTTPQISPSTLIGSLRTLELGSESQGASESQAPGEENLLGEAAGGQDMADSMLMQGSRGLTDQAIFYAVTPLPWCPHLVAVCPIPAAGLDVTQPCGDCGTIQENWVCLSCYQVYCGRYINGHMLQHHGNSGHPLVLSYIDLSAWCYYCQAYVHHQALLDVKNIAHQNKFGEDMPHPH
Briefly: HDAC6 inhibition assay (fluorogenic p53 peptide substrate). Type of test: biochemical. The method, then: The HDAC1, 2, 4, 5, 6, 7, 8, 9, 10, and 11 assays used isolated recombinant human protein; HDAC3/NcoR2 complex was used for the HDAC3 assay. Substrate for HDAC1, 2, 3, 6, 10, and 11 assays is a fluorogenic peptide from p53 residues 379-382 (RHKKAc); substrate for HDAC8 is fluorogenic diacyl peptide based on residues 379-382 of p53 (RHKAcKAc). Acetyl-Lys(trifluoroacetyl)-AMC substrate was used for HDAC4, 5, 7, and 9 assays. Compounds were dissolved in DMSO and tested in 10-dose IC50 mode with 3-fold serial dilution starting at 30 μM. Control Compound Trichostatin A (TSA) was tested in a 10-dose IC50 with 3-fold serial dilution starting at 5 μM. IC50 values were extracted by curve-fitting the dose/response slopes. Assays were performed in duplicate and IC50 values are an average of data from both experiments.
Human HDAC6 (GenBank Accession No. BC069243): Full length with N-terminal GST tag, MW=159 kDa, expressed by baculovirus expression system in Sf9 cells. Enzyme is in 50 mM Tris-HCl, pH 8.0, 138 mM NaCl, 20 mM glutathione, and 10% glycerol, and stable for >6 months at −80° C. Purity is >90% by SDS-PAGE. Specific Activity is 50 U/μg, where one U=1 pmol/min under assay condition of 25 mM Tris/Cl, pH8.0, 137 mM NaCl, 2.7 mM KCl, 1 mM MgCl2, and 0.1 mg/ml BSA, 30 μM HDAC substrate, and 5 ng/μl HDAC6, incubation for 60 min at 30° C.
Substrate for HDAC1 and HDAC6: Acetylated peptide substrate for HDAC, based on residues 379-382 of p53 (Arg-His-Lys-Lys(Ac)), a site of regulatory acetylation by the p300 and CBP acetyltransferases (lysines 381, 382)1-6, is the best for HDAC from among a panel of substrates patterned on p53, histone H3 and histone H4 acetylation sites7.
Reaction Buffer: 50 mM Tris-HCl, pH 8.0, 137 mM NaCl, 2.7 mM KCl, 1 mM MgCl2, 1 mg/ml BSA.
HDAC6: 12.6 nM HDAC6 and 50 μM HDAC substrate are in the reaction buffer and 1% DMSO final. Incubate for 2 hours at 30° C.
All IC50 values are automatically calculated using the GraphPad Prism version 5 and Equation of Sigmoidal dose-response (variable slope): Y=Bottom+(Top−Bottom)/(1+10^((Log EC50−X)*HillSlope)), where X is the logarithm of concentration, Y is the response, Y starts at Bottom and goes to Top with a sigmoid shape. In most cases, “Bottom” is set 0, and “Top” is set “less than 120%”. This is identical to the “four parameter logistic equation”. IC50 curves also are drawn using the GraphPad Prism, and IC50 values and Hill slopes are provided.
HDAC Activity Assays: HDAC assay is performed using fluorescently-labeled acetylated substrate, which comprises an acetylated lysine side chain. After incubation with HDAC, deacetylation of the substrate sensitizes the substrate such that, in a second step, treatment with the detection enzyme produces a fluorophore. HDACs 1 and 6 were expressed as full length fusion proteins. Purified proteins were incubated with 50 μM fluorescently-labeled acetylated peptide substrate and test compound for 2 hours at RT in HDAC assay buffer containing 50 mM Tris-HCl (pH 8.0), 137 mM NaCl, 2.7 mM KCl, 1 mM MgCl2, 1% DMSO, and 1% BSA.
Reactions were terminated by the addition of the Developer after 2 hours, and the development of fluorescence signal, which was relative to the amount of deacetylated peptide, was monitored by time-course measurement of EnVision (PerkinElmer). The HDAC activity was estimated from the slope of time-course measurement of the fluorescence intensity. The slope of no-enzyme control (substrate alone) was served as background, and % Enzyme activity was calculated using background-subtracted slope of no inhibitor control (DMSO) as 100% activity.

Test [2] deals with HIF-1α. Briefly: HIF1 activation, ODD reporter assay. Type of test: cell-based. Conditions: measured at 10 μM. The method, then: The present compounds were evaluated for an ability to activate Nrf2 and HIF-1α. Table 1 summarizes Nrf2 activation data obtained in Neh2-luc reporter assay; and HIF1 activation measured in ODD reporter assay.
(In a reporter assay the amount or activity of a reporter protein is the signal.)

[3] abbreviates: Table 1, performed by Reaction Biology Corporation, read-out: HDAC isoform IC50 (nM) 6.
Setting [4] is: Table 2 isoform selectivity, read-out: HDAC Inhibition (IC50 uM) isoform 6.

In the case of `O=C(NO)c1ccc(CN2CCc3ccc(F)cc32)cc1` [II-ING-41, 4-((6-Fluoroindolin-1-yl)methyl)-N-hydroxybenzamide], the IC50 in test [1] (setting [3]) turned out to be 16.7 nM; in test [1] (setting [4]), 4 nM. Moreover, the fold induction at 10 µM in test [2] stood at 3.6.
As to `Cn1c(NCc2ccc(C(=O)NO)cc2)nc2ccccc21` [II-ING-13, N-Hydroxy-4-(((1-methyl-1H-benzo[d]imidazol-2-yl)amino)methyl)benzamide], the IC50 in test [1] (setting [3]) worked out at 11 nM; in test [1] (setting [4]), 9 nM. In test [2], this compound had a fold induction at 10 µM of 2.6.
Consider `O=C(NO)c1ccc(CN2CCc3ccc(Cl)cc32)cc1` [II-ING-6, 4-((6-Chloroindolin-1-yl)methyl)-N-hydroxybenzamide], for which the IC50 in test [1] (setting [3]) stood at 11.5 nM; in test [1] (setting [4]) it was 9 nM. The compound further yielded a fold induction at 10 µM in test [2] of 7.5.
For `O=C(NO)c1ccc(CN2CCc3ccccc32)cc1` [II-ING-44, N-Hydroxy-4-(indolin-1-ylmethyl)benzamide], in test [1] (setting [3]), the concentration for half-maximal inhibition (IC50) is 26.8 nM. Further, the fold induction at 10 µM in test [2] turned out to be 1.4.
For the compound `COc1ccc2c(c1)CCN2Cc1ccc(C(=O)NO)cc1` [II-ING-49, N-Hydroxy-4-((5-methoxyindolin-1-yl)methyl)benzamide], in test [1] (setting [3]), the IC50 was 11.5 nM. In test [2], this compound showed a fold induction at 10 µM of 1.
Consider `O=C(NO)c1ccc(CN2CCc3cc(Cl)ccc32)cc1` [II-ING-39, 4-((5-Chloroindolin-1-yl)methyl)-N-hydroxybenzamide], for which the IC50 in test [1] (setting [3]) came out at 21.5 nM. For the same compound, in test [2], the fold induction at 10 µM stood at 7.
Take `O=C(NO)c1ccc(CN2CCc3cc(F)ccc32)cc1` [II-ING-42, 4-((5-Fluoroindolin-1-yl)methyl)-N-hydroxybenzamide]: in test [1] (setting [3]), the IC50 stood at 13.1 nM. The compound also yielded a fold induction at 10 µM in test [2] of 1.4.
As to `O=C(NO)c1ccc(CN2C(=O)C(F)(F)c3ccccc32)cc1` [II-ING-66, 4-((3,3-Difluoro-2-oxoindolin-1-yl)methyl)-N-hydroxybenzamide], in test [1] (setting [3]), the IC50 was 4.1 nM. The compound further displayed a fold induction at 10 µM in test [2] of 5.6.
